Consider 29 compounds from US6794402B2, “Bicyclic cyclohexylamines and their use as NMDA receptor antagonists” (Warner-Lambert Company, priority 2000, dated 2004).

The structures appear in SMILES notation. Where only a bound is given, the exact number is not on record here.

The experiment deals with T1, [3H]ifenprodil binding site, rat forebrain membranes (Rattus norvegicus, UniProt P35439+Q00960).
T1 construct: membrane fraction was prepared from frozen adult rat forebrains; tissue Zivic-Miller Laboratories, Inc; host or cells: adult rat forebrain, washed buffy coat membrane fraction
T1 sequence (Q00960 27-1482, other chains not shown): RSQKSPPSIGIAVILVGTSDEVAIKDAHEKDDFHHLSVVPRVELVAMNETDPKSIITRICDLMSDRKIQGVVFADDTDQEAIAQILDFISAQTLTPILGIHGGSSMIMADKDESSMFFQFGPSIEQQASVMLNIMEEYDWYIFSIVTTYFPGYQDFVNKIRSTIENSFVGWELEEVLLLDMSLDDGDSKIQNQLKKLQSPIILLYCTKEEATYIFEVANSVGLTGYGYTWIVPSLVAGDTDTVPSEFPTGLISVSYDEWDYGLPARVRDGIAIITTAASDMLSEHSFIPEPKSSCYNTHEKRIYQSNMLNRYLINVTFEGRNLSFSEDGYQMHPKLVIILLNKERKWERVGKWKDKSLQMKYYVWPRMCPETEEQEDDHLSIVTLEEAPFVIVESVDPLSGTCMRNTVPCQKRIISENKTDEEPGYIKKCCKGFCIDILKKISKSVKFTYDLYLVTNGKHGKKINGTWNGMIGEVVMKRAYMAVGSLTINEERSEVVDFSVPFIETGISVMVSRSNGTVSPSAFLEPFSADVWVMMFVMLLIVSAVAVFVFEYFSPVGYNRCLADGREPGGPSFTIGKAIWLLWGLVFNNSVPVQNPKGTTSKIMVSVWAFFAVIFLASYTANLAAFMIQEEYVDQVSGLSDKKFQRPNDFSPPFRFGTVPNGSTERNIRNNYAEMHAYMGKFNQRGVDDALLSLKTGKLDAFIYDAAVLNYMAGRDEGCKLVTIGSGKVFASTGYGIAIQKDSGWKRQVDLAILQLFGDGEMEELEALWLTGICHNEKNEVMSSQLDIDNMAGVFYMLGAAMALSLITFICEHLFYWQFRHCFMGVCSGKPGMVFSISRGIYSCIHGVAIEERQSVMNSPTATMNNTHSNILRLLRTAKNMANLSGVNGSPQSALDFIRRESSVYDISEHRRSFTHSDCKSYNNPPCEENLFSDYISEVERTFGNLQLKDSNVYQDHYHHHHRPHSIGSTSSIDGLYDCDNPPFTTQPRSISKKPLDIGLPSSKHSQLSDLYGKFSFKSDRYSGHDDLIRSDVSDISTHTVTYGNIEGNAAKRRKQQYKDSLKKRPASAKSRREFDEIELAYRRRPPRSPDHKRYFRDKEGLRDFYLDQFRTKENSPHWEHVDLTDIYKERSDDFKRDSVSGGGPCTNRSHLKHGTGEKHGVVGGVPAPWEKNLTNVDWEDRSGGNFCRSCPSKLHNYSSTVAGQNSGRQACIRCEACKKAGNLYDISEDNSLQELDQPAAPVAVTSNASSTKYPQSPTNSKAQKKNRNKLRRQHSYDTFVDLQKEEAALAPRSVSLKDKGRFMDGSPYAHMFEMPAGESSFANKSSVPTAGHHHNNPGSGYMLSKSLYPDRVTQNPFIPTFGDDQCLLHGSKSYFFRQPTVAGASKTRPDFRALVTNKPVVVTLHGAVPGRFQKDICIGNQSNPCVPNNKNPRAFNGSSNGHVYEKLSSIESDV
The experiment in a line: [3H]Ifenprodil binding assay. The conditions noted are these: 4 nM [3H]-ifenprodil, 2 hours at room temperature. As to the method:
All buffers and reagents used in assay incubations or to dissolve drugs were prepared using water purified through a Milli-Q reverse osmosis system (Millipore Corp, Bedford, Mass.) and treated with UV emissions. Prior to use in the assays, buffers were further filtered through a sterile Corning filtration unit (Corning Glass Works, Corning, N.Y.) containing a 0.2-micron filter. Buffer used to rinse the membranes on the assay filters was prepared with purified water, but was not refiltered and was stored no longer than 5 days. Stock solutions of the drugs (usually 10 mM) were dissolved in 20 mM HEPES-KOH buffer pH 7.4 (assay buffer) with the addition of 1 to 5 μL of glacial AcOH, if needed to keep them in solution. For eliprodil the stock solution was buffered with the addition of 10% DMSO. All subsequent dilutions from stock were made in buffer.
An extensively washed buffy coat membrane fraction was prepared from frozen adult rat forebrains (Zivic-Miller Laboratories, Inc., Zelienople, Pa.) as described previously (Coughenour L. L., Cordon, J. J., J. Pharmacol. Exp. Ther., 1997;280:584-592) and stored at −80° C. On the day of the assay, pellets were resuspended in 35 mL of assay buffer at pH 7.4 using a Polytron setting 6. After incubation at 37° C. for 30 minutes in a shaking water bath, the homogenate was centrifuged 40,000×g for 10 minutes at 4° C. The pellets were resuspended in fresh buffer and centrifuged 3 more times before final suspension for use in the assay.
[^3H]Ifenprodil Binding. Triplicate incubations were carried out in a volume of 0.5 mL in 1.3 mL polypropylene tubes (Marsh Biomedical Products Inc., Rochester, N.Y.) for 2 hours at room temperature. Incubations contained test agents, membranes (100-200 μg protein) and 4 nM[^3H]-ifenprodil in 20 mM HEPES-KOH buffer, pH 7.4 (assay buffer). Assays were started by addition of the membranes. Bound radioligand was separated by filtration under reduced pressure using a Tomtec Mach II, 96-well cell harvester (Tomtec Inc., Orange, Colo.). Filtration was through Whatman GF/B glass fiber filters (Whatman Ltd, Maidstone, England), which had been soaked for at least 15 minutes in 0.3% polyethylenimine and allowed to air dry. The filters were rinsed with 3 mL of ice cold assay buffer within 6 seconds. Air was allowed to pass through the filters for an additional 10 seconds to remove residual moisture. The filter mat was supported on a cold (−20° C.) teflon support, and filters from individual wells were separated and placed in Mini Poly-Q vials (Beckman Instruments Inc., Fullerton, Calif.) and filled with 4 mL of scintillation cocktail (Beckman Ready Protein^+). Radioactivity retained on the filter was determined by liquid scintillation spectrophotometry. Nonspecific binding was defined as the binding in the presence of 1 mM ifenprodil. Specific binding was 90%.
Data analysis. Binding curves were statistically analyzed for a best one or two site competition fit using GraphPad Prism software (GraphPad Software Inc., San Diego, Calif.). The normalized data was fit by nonweighted nonlinear regression to either [formula]
Control data was entered as 100%, and no parameters were constrained. Inhibition curves were compared by ANOVA with post test comparisons of the logIC50 using Dunnett's multiple comparisons post test or Student's nonpaired, two-tailed t-test (GraphPad InStat software).
By IC50 is commonly meant the point on the concentration scale where inhibition reaches its midpoint. Low values mean higher potency, high ones lower potency. Compound `O=C(NCCNC1CCC(c2ccc3[nH]c(=O)oc3c2)CC1)c1ccccc1` (mixture of isomers) [Example 42b, N-{2-[4-(2-Oxo-2,3-dihydrobenzoxazol-6-yl)cyclohexylamino]ethyl}-benzamide] showed an IC50 of 980 nM.

In turn, `Cc1cc(F)ccc1CCCN(C)C1CCC(c2ccc3[nH]c(=O)oc3c2)CC1` (stereo in doubt) [Example 43b, 6-(trans-{4-[Methyl(4-fluoro-2-methylphenylpropyl)amino]cyclohexyl})-3H-benzoxazol-2-one] displayed an IC50 of 56 nM. For the compound `O=c1[nH]c2ccc([C@H]3CC[C@@H](NCCSc4ccccc4)CC3)cc2o1` [Example 5b, 6-[cis-4-(2-Phenylsulfanylethylamino)cyclohexyl]-3H-benzoxazol-2-one], the IC50 was found to be 21 nM. With `O=c1[nH]c2ccc([C@H]3CC[C@H](NCCCc4ccc(C(F)(F)F)cc4)CC3)cc2o1` [Example 14, 6-{trans-4-[3-(4-Trifluoromethylphenyl)propylamino]cyclohexyl}-3H-benzoxazol-2-one], the IC50 amounted to 128 nM.

For `CN(CCCc1ccc(F)cc1)[C@H]1CC[C@@H](c2ccc3[nH]c(=O)oc3c2)CC1` [Example 19, 6-(cis-4-{[3-(4-Fluorophenyl)propyl]methylamino}cyclohexyl)-3H-benzoxazol-2-one], the IC50 was 185 nM. With `CN(CCCc1ccc(F)cc1F)[C@H]1CC[C@H](c2ccc3[nH]c(=O)oc3c2)CC1` [Example 24b, 6-(trans-4-{[3-(2,4-Difluorophenyl)propyl]methylamino}cyclohexyl)-3H-benzoxazol-2-one], the IC50 came to 14 nM. On to `CCN(CCCc1ccc(C(F)(F)F)cc1)[C@H]1CC[C@H](c2ccc3[nH]c(=O)oc3c2)CC1` [Example 26], for which the IC50 is 188 nM. `CCN([C@H]1CC[C@H](c2ccc3[nH]c(=O)oc3c2)CC1)[C@H](C)CCc1ccccc1` [Example 27, 6-(trans-4-{Ethyl-[(R)-1-methyl-3-phenylpropyl]amino}cyclohexyl)-3H-benzoxazol-2-one] registered an IC50 of 132 nM.

The compound `CCN([C@H]1CC[C@H](c2ccc3[nH]c(=O)oc3c2)CC1)[C@@H](C)CCc1ccccc1` [Example 28, 6-(trans-4-{Ethyl-[(S)-1-methyl-3-phenylpropyl]amino}cyclohexyl)-3H-benzoxazol-2-one] returned an IC50 of 184 nM. In the case of `O=c1[nH]c2ccc([C@H]3CC[C@H](N(CCO)CCCc4ccc(F)cc4)CC3)cc2o1` [Example 29, 6-{trans-4-[[3-(4-Fluorophenyl)propyl]-(2-hydroxyethyl)amino]cyclohexyl}-3H-benzoxazol-2-one], the IC50 stood at 18 nM. `O=c1[nH]c2ccc([C@H]3CC[C@H](N(CCCc4ccc(F)cc4)CC4CC4)CC3)cc2o1` [Example 30, 6-(trans-4-{Cyclopropylmethyl-[3-(4-fluorophenyl)propyl]amino}cyclohexyl)-3H-benzoxazol-2-one] returned an IC50 of 219 nM. `O=c1[nH]c2ccc([C@H]3CC[C@H](N(CCCc4ccc(F)cc4)Cc4ccoc4)CC3)cc2o1` [Example 31, 6-(trans-4-{[3-(4-Fluorophenyl)propyl]furan-3-ylmethylamino}cyclohexyl)-3H-benzoxazol-2-one] showed an IC50 of 465 nM. `C=CCN(CCCc1ccc(F)cc1)[C@H]1CC[C@H](c2ccc3[nH]c(=O)oc3c2)CC1` [Example 32, 6-(trans-4-{Allyl-[3-(4-fluorophenyl)propyl]amino}cyclohexyl)-3H-benzoxazol-2-one]: the IC50 came out at 158 nM.

On to `CC(C)CN(CCCc1ccc(F)cc1)[C@H]1CC[C@H](c2ccc3[nH]c(=O)oc3c2)CC1` [Example 33, 6-(trans-4-{[3-(4-Fluorophenyl)propyl]isobutylamino}cyclohexyl)-3H-benzoxazol-2-one], for which the IC50 was above 1000 nM. Compound `NC(=O)CN(CCCc1ccc(F)cc1)[C@H]1CC[C@H](c2ccc3[nH]c(=O)oc3c2)CC1` [Example 34, 2-{[3-(4-Fluorophenyl)propyl]-[4-(2-oxo-2,3-dihydro-benzoxazol-6-yl)-cyclohexyl]amino}acetamide] returned a 50% inhibitory concentration (IC50) of 152 nM. `NCCN(CCCc1ccc(F)cc1)[C@H]1CC[C@H](c2ccc3[nH]c(=O)oc3c2)CC1` [Example 35, 6-(trans-4-{(2-Aminoethyl)-[3-(4-fluorophenyl)propyl]amino}cyclohexyl)-3H-benzoxazol-2-one] gave an IC50 of 170 nM. In the case of `CCC[C@@H](CSc1ccc(F)cc1)N(CC)[C@H]1CC[C@H](c2ccc3[nH]c(=O)oc3c2)CC1` [Example 36b, (S)-6-{trans-4-[Ethyl(1-(4-fluorophenylsulfanyl)pentan-2-yl)amino]-cyclohexyl}-3H-benzoxazol-2-one], the IC50 was above 1000 nM. The compound `CN(CCCc1ccc(Cl)cc1)[C@H]1CC[C@H](c2ccc3[nH]c(=O)oc3c2)CC1` [Example 38b, 6-(trans-4-{[3-(4-Chlorophenyl)propyl]methylamino}cyclohexyl)-3H-benzoxazol-2-one] came in with an IC50 of 7 nM. The compound `CN(CCCc1cc(F)cc(F)c1)[C@H]1CC[C@H](c2ccc3[nH]c(=O)oc3c2)CC1` [Example 39b, 6-(trans-{[3-(3,5-Difluorophenyl)propyl]methylamino}cyclohexyl)-3H-benzoxazol-2-one] came in with an IC50 of 37 nM. The same measure for `CN(CCCc1ccc(F)c(F)c1)[C@H]1CC[C@H](c2ccc3[nH]c(=O)oc3c2)CC1` [Example 40b, 6-(trans-4-{[3-(3,4-Difluorophenyl)propyl]methylamino}cyclohexyl)-3H-benzoxazol-2-one]: 29 nM; for `Cc1ccc(CCCN(C)[C@H]2CC[C@H](c3ccc4[nH]c(=O)oc4c3)CC2)c(C)c1` [Example 41b]: 68 nM; for `CN(CCCc1ccc(F)cc1Cl)[C@H]1CC[C@H](c2ccc3[nH]c(=O)oc3c2)CC1` [Example 44b, 6-(trans-4-{[3-(2-Chloro-4-fluorophenyl)propyl]methylamino}cyclohexyl)-3H-benzoxazol-2-one]: 7 nM. The same measure for `CN(CCCc1ccc(Cl)cc1F)[C@H]1CC[C@H](c2ccc3[nH]c(=O)oc3c2)CC1` [Example 45b, 6-(trans-4-{[3-(4-Chloro-2-fluorophenyl)propyl]methylamino}cyclohexyl)-3H-benzoxazol-2-one]: 7 nM; for `CN(CCCc1ccccc1F)[C@H]1CC[C@H](c2ccc3[nH]c(=O)oc3c2)CC1` [Example 46b, 6-(trans-4-{[3-(2-Fluorophenyl)propyl]methylamino}cyclohexyl)-3H-benzoxazol-2-one]: 9 nM.

In the case of `CN(CCCc1cccc(F)c1)[C@H]1CC[C@H](c2ccc3[nH]c(=O)oc3c2)CC1` [Example 47b, 6-(trans-4-{[3-(3-Fluorophenyl)propyl]methylamino}cyclohexyl)-3H-benzoxazol-2-one], the half-maximal inhibitory concentration (IC50) was 15 nM.

Compound `Cc1c(F)cccc1CCCN(C)[C@H]1CC[C@H](c2ccc3[nH]c(=O)oc3c2)CC1` [Example 48b, 6-(trans-4-{[3-(3-Fluoro-2-methylphenyl)propyl]methylamino}cyclohexyl)-3H-benzoxazol-2-one] had an IC50 of 20 nM.

Turning to `CN(CCCC1CCCCC1)[C@H]1CC[C@H](c2ccc3[nH]c(=O)oc3c2)CC1` [Example 49b, 6-{trans-4-[(3-Cyclohexylpropyl)methylamino]cyclohexyl}-3H-benzoxazol-2-one], the IC50 came to 22 nM. The compound `CC(Cc1ccccc1)CN(C)[C@H]1CC[C@H](c2ccc3[nH]c(=O)oc3c2)CC1` (stereo partly drawn) [Example 50b, 6-(trans-{4-[Methyl(2-methyl-3-phenylpropyl)amino]cyclohexyl})-3H-benzoxazol-2-one] yielded an IC50 of 351 nM. In the case of `CN(CC#Cc1ccccc1)[C@H]1CC[C@H](c2ccc3[nH]c(=O)oc3c2)CC1` [Example 51b, 6-(trans-{4-[Methyl(3-phenyl-prop-2-ynyl)amino]cyclohexyl})-3H-benzoxazol-2-one] it was 550 nM.
